# ChEMBL document CHEMBL1128428, “Inhibition of matrix metalloproteinases by hydroxamates containing heteroatom-based modifications of the P1' group” (J Med Chem, 1995)
# Target: Neutrophil collagenase (Homo sapiens, UniProt P22894)
# Sequence (P22894 whole entry): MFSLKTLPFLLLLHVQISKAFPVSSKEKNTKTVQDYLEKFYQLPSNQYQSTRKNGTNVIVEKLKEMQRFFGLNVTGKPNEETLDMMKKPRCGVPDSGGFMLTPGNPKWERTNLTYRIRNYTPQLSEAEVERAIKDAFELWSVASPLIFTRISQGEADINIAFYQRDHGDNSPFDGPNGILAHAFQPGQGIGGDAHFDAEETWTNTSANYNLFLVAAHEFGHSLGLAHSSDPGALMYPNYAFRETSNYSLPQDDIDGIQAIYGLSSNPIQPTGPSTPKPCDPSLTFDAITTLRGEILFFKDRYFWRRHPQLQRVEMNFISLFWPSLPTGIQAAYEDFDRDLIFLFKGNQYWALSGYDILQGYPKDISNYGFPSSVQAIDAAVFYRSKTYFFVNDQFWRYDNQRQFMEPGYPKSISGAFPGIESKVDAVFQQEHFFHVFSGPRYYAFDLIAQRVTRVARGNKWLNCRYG
row,Ki,SMILES
1,12 nM,CCCC(=O)NCCCC[C@H](CC(=O)NO)C(=O)N[C@@H](Cc1ccccc1)C(=O)NC
2,< 2 nM,CNC(=O)[C@H](Cc1ccccc1)NC(=O)[C@H](CCCCOc1ccccc1)CC(=O)NO
3,30 nM,CNC(=O)[C@H](Cc1ccccc1)NC(=O)[C@H](CCCC(=O)NCc1ccccc1)CC(=O)NO
4,< 2 nM,CNC(=O)[C@H](Cc1ccccc1)NC(=O)[C@H](CCCCCOc1ccccc1)CC(=O)NO
5,2 nM,CCCNC(=O)CCC[C@H](CC(=O)NO)C(=O)N[C@@H](Cc1ccccc1)C(=O)NC
6,2 nM,CNC(=O)[C@H](Cc1ccccc1)NC(=O)[C@H](CCCCCOCc1ccccc1)CC(=O)NO
7,32 nM,CNC(=O)[C@H](Cc1ccccc1)NC(=O)[C@H](CCCC(=O)NCCc1ccccc1)CC(=O)NO
8,4 nM,CNC(=O)[C@H](Cc1ccccc1)NC(=O)[C@H](CCCCCO)CC(=O)NO

# Target: T1, Interstitial collagenase (Homo sapiens, UniProt P03956)
# T1 sequence (P03956 whole entry): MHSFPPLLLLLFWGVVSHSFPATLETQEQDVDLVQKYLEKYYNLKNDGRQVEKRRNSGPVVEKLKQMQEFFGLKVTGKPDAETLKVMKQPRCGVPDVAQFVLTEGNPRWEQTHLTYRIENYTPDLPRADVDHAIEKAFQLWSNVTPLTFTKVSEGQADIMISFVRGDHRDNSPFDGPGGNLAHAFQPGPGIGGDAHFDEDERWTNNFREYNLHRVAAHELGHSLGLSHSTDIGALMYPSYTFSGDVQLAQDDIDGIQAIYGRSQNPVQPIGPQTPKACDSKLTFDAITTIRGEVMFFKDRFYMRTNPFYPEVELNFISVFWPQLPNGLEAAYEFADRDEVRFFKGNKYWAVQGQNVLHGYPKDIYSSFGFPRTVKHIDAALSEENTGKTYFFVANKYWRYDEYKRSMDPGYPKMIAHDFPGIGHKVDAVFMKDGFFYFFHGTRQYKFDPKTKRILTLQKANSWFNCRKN
row,Ki,SMILES
1,140 nM,CC(C)(C)[C@H](NC(=O)[C@H](CCCCOc1ccccc1)CC(=O)NO)C(=O)NCCC(=O)O
2,350 nM,CNC(=O)[C@@H](NC(=O)[C@H](CCCCOc1ccc(C(C)(C)C)cc1)CC(=O)NO)C(C)(C)C
3,95 nM,CNC(=O)[C@@H](NC(=O)[C@H](CCCCOc1ccc(Cl)c(Cl)c1)CC(=O)NO)C(C)(C)C
4,3 nM,CNC(=O)[C@@H](NC(=O)[C@H](CCCCOc1ccccc1)CC(=O)NO)C(C)(C)C
5,10 nM,CC(C)(C)[C@H](NC(=O)[C@H](CCCCOc1ccc(Cl)cc1)CC(=O)NO)C(=O)NCCCN1CCOCC1
6,11 nM,CNC(=O)[C@@H](NC(=O)[C@H](CCCCOc1ccc(F)cc1)CC(=O)NO)C(C)(C)C
7,1900 nM,CCCCCc1ccc(OCCCC[C@H](CC(=O)NO)C(=O)N[C@H](C(=O)NC)C(C)(C)C)cc1
8,580 nM,CC(C)(C)[C@H](NC(=O)[C@H](CCCCOc1ccc(Cl)cc1)CC(=O)NO)C(=O)NCCc1ccccc1
9,9600 nM,CNC(=O)[C@H](Cc1ccccc1)NC(=O)[C@H](CCCC(=O)NCc1ccccc1)CC(=O)NO
10,62 nM,CC(C)(C)[C@H](NC(=O)[C@H](CCCCOc1ccccc1)CC(=O)NO)C(=O)NCCCC(=O)O
11,143 nM,CNC(=O)[C@@H](NC(=O)[C@H](CCCCOc1cccc(Cl)c1)CC(=O)NO)C(C)(C)C
12,< 1 nM,CNC(=O)[C@@H](NC(=O)[C@H](CCCCOc1ccc(OC)cc1)CC(=O)NO)C(C)(C)C
13,61 nM,CC(C)(C)[C@H](NC(=O)[C@H](CCCCOc1ccc(Cl)cc1)CC(=O)NO)C(=O)NCCc1ccc(S(N)(=O)=O)cc1
14,16 nM,CNC(=O)[C@@H](NC(=O)[C@H](CCCCOc1cccc(C)c1)CC(=O)NO)C(C)(C)C
15,64 nM,CNC(=O)[C@H](Cc1ccccc1)NC(=O)[C@H](CCCCO)CC(=O)NO
16,1300 nM,CNC(=O)[C@H](Cc1ccccc1)NC(=O)[C@H](CCCC(=O)NCCc1ccccc1)CC(=O)NO
17,31 nM,CNC(=O)[C@H](Cc1ccccc1)NC(=O)[C@H](CCCCCO)CC(=O)NO
18,80 nM,CC(C)(C)[C@H](NC(=O)[C@H](CCCCOc1ccc(Cl)cc1)CC(=O)NO)C(=O)NCCc1ccccn1
19,170 nM,CCCc1ccc(OCCCC[C@H](CC(=O)NO)C(=O)N[C@H](C(=O)NC)C(C)(C)C)cc1
20,80 nM,CC(C)(C)[C@H](NC(=O)[C@H](CCCCOc1ccc(Cl)cc1)CC(=O)NO)C(=O)NCCN1CCCC1
21,30 nM,CNC(=O)[C@@H](NC(=O)[C@H](CCCCOc1ccc(C(C)C)cc1)CC(=O)NO)C(C)(C)C
22,72 nM,CNC(=O)[C@@H](NC(=O)[C@H](CCCCOc1cccc(OC)c1)CC(=O)NO)C(C)(C)C
